Measured values from US20180203014A1, “COMPOSITIONS FOR DETECTING CIRCULATING INTEGRIN BETA-3 BIOMARKER AND METHODS FOR DETECTING CANCERS AND ASSESSING TUMOR PRESENCE OR PROGRESSION, CANCER DRUG RESISTANCE AND TUMOR STEMNESS” (The Regents of the University of California, priority 2015, published 2018).
Entries after “also recorded” stand apart in the source; their conditions may differ.

Experiments:
[1] = test system: β3-positive cells (FG-β3, MDA-MB231, FG-R); test: Anchorage independent growth in soft agar, NFkB inhibitors with erlotinib (FIG. 31); format: cell-based, human; conditions: Lenalidomide 2 μM, PS-1145 1 μM, 10 to 15 days; for response of colonies / tumorsphere formation to single agent: β3-positive cells (intrinsic or acquired resistant), each agent alone: erlotinib 0.5 μM; for tumorsphere formation, combination with erlotinib: β3-positive cells, in combination with erlotinib 0.5 μM
Text: Then, the soft agar were stained with crystal violet and the colonies were counted manually.

[2] = test system: panel of human carcinoma cell lines; test: Tumorsphere assay (Example 2); format: cell-based; conditions: for tumorsphere formation in vitro, combination with erlotinib: β3-positive cells (FG-β3, PANC-1, A549), erlotinib 0.5 μM with lenalidomide 1-2 μM or bortezomib 4 nM; for impact of integrin β3 expression on resistance: β3-negative vs β3-positive cells
Protocol: Tumorsphere assay was performed as previously described (10). […] The media was replaced with fresh inhibitor 2/6 times a week. Survival curves were generated at least with five concentration points.

[3] = test system: subcutaneous β3-positive tumors (FG-β3, FG-R); test: Subcutaneous β3-positive tumors in mice; conditions: for tumor growth, monotherapy: lenalidomide 25 mg/kg/day or bortezomib 0.25 mg/kg alone; for tumor growth in vivo, combination with erlotinib: with erlotinib 25 mg/kg/day, lenalidomide 25 mg/kg/day (FG-β3) or bortezomib 0.25 mg/kg (FG-R)
Protocol: FG pancreatic carcinoma cells (1×10^6 tumor cells in 30 μl of PBS) were injected into the pancreas of 6- to 8-week-old male nude mice as previously described (10). Tumors were established for 2-3 weeks (tumor sizes were monitored by ultrasound) before beginning dosing. […] FG pancreatic carcinoma cells (1×10^6 tumor cells in 30 μl of PBS) were injected into the pancreas of 6- to 8-week-old male nude mice as previously described (10). Tumors were established for 2-3 weeks (tumor sizes were monitored by ultrasound) before beginning dosing. […] Tumors were measured every 2-3 days with calipers until they were harvested at day 10,16 or after acquired resistance.
Tumor dimensions are reported as the fold change relative to size of the same tumor on Day 1. Mean±SEM, (A) *P=0.042 using a one way ANOVA test. n=6 mice per group. […] Tumor dimensions are reported as the fold change relative to size of the same tumor on Day 1. *P=0.0134 using a one way ANOVA test. n=8 mice per group.

FG and FG-β3 cells = test: Tumor sphere formation assay (Example 1); format: cell-based, human; conditions: for effect of αvβ3 expression on drug resistance (tumor sphere formation): FG lacking β3 vs FG-β3, in vitro
Protocol: (§1) Tumor spheres formation assays were performed essentially as described previously^17. […] Colonies were stained with crystal violet and scored with an Olympus SZH10 microscope. Survival curves were generated at least with five concentration points.

[4] = test system: β3-positive and β3-negative tumor cells (FG, PANC-1); test: Self renewal tumorsphere assay and soft agar assay, 3D (Example 3); format: cell-based, human; conditions: β3 ectopic expression (FG) or knockdown (PANC-1)
Protocol: Tumorsphere assay was performed as previously described. Soft agar formation assays were performed essentially as described previously. […] The media was replaced with fresh inhibitor 2/5 times a week. Survival curves were generated at least with five concentration points. […] Cells were treated with a dose response of gemcitabine, cisplatin, erlotinib, lapatinib and linsitinib. […] Tumor volumes are expressed as mean±SEM. *P<0.05. […] Results are expressed as % tumor weight compared to vehicle control. *P<0.05. […] Data are mean±SE; **P<0.001. […] Scale bar, 50 μm.

PANC-1 cells = test: Tumor sphere formation assay, knockdown of αvβ3 (Example 1); format: cell-based, human
Protocol: as §1, with “previously^17. Briefly, cells were seeded at 1000 to 2000 cells per well and grown for 12 days to 3 weeks.” for “previously^17.”

[5] = test system: orthotopic FG pancreatic tumors; test: Orthotopic pancreas cancer xenograft model; format: in vivo, mice
Protocol: All mouse experiments were carried out in accordance with approved protocols from the UCSD animal subjects committee and with the guidelines set forth in the NIH Guide for the Care and Use of Laboratory Animals. Tumors were generated by injection of FG human pancreatic carcinoma cells (10^6 tumor cells in 30 μL of sterile PBS) into the tail of the pancreas of 6-8 week old male immune compromised nu/nu mice.
Tumors were generated as previously described (JAY).

[6] = test system: H441 human lung adenocarcinoma orthotopic tumors; test: Orthotopic lung cancer xenograft model; format: in vivo, mice
Protocol: FG pancreatic carcinoma cells (1×10^6 tumor cells in 30 μl of PBS) were injected into the pancreas of 6- to 8-week-old male nude mice as previously described (10). Tumors were established for 2-3 weeks (tumor sizes were monitored by ultrasound) before beginning dosing. […] H441 lung adenocarcinoma cells were generated as previously described (21). […] FG pancreatic carcinoma cells (1×10^6 tumor cells in 30 μl of PBS) were injected into the pancreas of 6- to 8-week-old male nude mice as previously described (10). Tumors were established for 2-3 weeks (tumor sizes were monitored by ultrasound) before beginning dosing. […] H441 lung adenocarcinoma cells were generated as previously described (21). […] Tumors were measured every 2-3 days with calipers until they were harvested at day 10,16 or after acquired resistance.

[7] = test system: phosphorylated TBK1 and NF-κB; test: Immunoblot analysis of RalB effectors in cells grown in suspension and treated with erlotinib; format: cell-based, human; conditions: αvβ3 negative cells, erlotinib 0.5 μM
Protocol: Cells were lysed in either RIPA lysis buffer (50 mM Tris pH 7.4, 100 mM NaCL, 2 mM EDTA, 10% DOC, 10% Triton, 0.1% SDS) or Triton lysis buffer (50 mM Tris pH 7.5, 150 mN NaCl, 1 mM EDTA, 5 mM MgCl2, 10% Glycerol, 1% Triton) supplemented with complete protease and phosphatase inhibitor mixtures (Roche) and centrifuged at 13,000 g for 10 min at 4° C. Protein concentration was determined by BCA assay. 500 μg to 1 mg of protein were immunoprecipitated with 3 μg of anti-integrin αvβ-3 (LM609) overnight at 4° C. following by capture with 25 μl of protein A/G (Pierce). Beads were washed five times, eluted in Laemmli buffer, resolved on NuPAGE 4-12% Bis-Tris Gel (Invitrogen) and immunoblotting was performed with anti-integrin β3 (Santa Cruz), anti-RalB (Cell Signaling Technology), anti KRAS (Santa Cruz). For immunoblot analysis, 25 of protein was boiled in Laemmli buffer and resolved on 8% to 15% gel. […]

[8] = test system: stage IV non-small cell lung cancer; test: Serial biopsies from NSCLC patients on erlotinib therapy; format: in vivo, human
Protocol: All biopsies are from lung or pleural effusion. […] This work was approved by the UCSD Institutional Review Board (IRB).
Immunostaining was performed according to the manufacturer's recommendations (Vector Labs) on […] sections of paraffin-embedded tumors from tumor biopsies from lung cancer patients. Tumor sections were processed as previously described (23) using integrin β3 (Abcam clone EP2417Y). Sections stained with integrin β3 were scored by a H-score according to the staining intensity (SI) on a scale 0 to 3 within the whole tissue section.

[9] = test system: HCC827 human lung cancer cells; test: Circulating tumor cells from orthotopic HCC827 lung tumors (FIG. 30); format: in vivo, mice; conditions: orthotopic HCC827, 3 months at 25 mg/kg/day
Text: FIG. 30 illustrates data showing integrin β3 (CD61) is a RTKI (Receptor Tyrosine Kinase (RTK) Inhibitor) drug resistance biomarker on the surface of circulating tumor cells; as discussed in detail in Example 2, below.

HCC827 xenograft tumors = HCC827 xenograft tumors treated until acquired resistance; format: in vivo, mice; conditions: erlotinib 12.5 mg/kg/day until acquired resistance
Text: Tumor volumes are expressed as mean±SEM. *P<0.05. […] Results are expressed as % tumor weight compared to vehicle control. *P<0.05. […] Data are mean±SE; **P<0.001. […] Scale bar, 50 μm.

integrin αvβ3 (CD61) = test: Flow cytometry of αvβ3 after prolonged EGFR TKI exposure in vitro; format: cell-based, human; conditions: FG, Miapaca-2 and other erlotinib sensitive lines, weeks of treatment
Protocol: Human pancreatic (FG, PANC-1, Miapaca-2 (MP2), CFPAC-1, XPA-1, CAPAN-1, BxPc3), breast (MDAMB231, MDAMB468 (MDA468), BT20, SKBR3, BT474), colon (SW480) and lung (A549, H441) cancer cell lines were grown in ATCC recommended media supplemented with 10% fetal bovine serum, glutamine and non-essential amino acids. We obtained FG-β3, FG-D119A mutant and PANC-shβ3 cells as previously described^17. […] Cisplatin was generated from Sigma-Aldrich. Lenalidomide was purchased from LC Laboratories.
200,000 cells, after drug or vehicle treatment, were washed with PBS and incubated for 20 minutes with the Live/Dead reagent (Invitrogen) according to the manufacturer's instruction, then, cells were fixed with 4% paraformaldehyde for 15 min and blocked for 30 min with 2% BSA in PBS. Cells were stained with fluorescent-conjugated antibodies to CD61 (LM609), CD44 (eBioscience), CD24 (eBioscience), CD34 (eBioscience), CD133 (Santa Cruz), CD56 (eBioscience), CD29 (P4C10) and CD49f (eBioscience). All antibodies were used at 1:100 dilutions, 30 minutes at 4° C. After washing several times with PBS, cells were analyzed by FACS.

[10] = test system: subcutaneous A549 xenografts; test: Subcutaneous A549 xenografts, integrin β3 knockdown; format: in vivo, mice; conditions: A549 shCTRL vs sh β3, erlotinib 25 mg/kg/day, 16 days
Text: (A) Immunoblots showing integrin β3 knockdown efficiency in cells used in FIG. 1. […] Tumor volumes are expressed as mean±SEM. n=8 mice per group. (C) Immunoblots showing expression of indicated proteins of representative tumors. […] (E) Effect of integrin β3 expression on lapatinib, OSI-906, cisplatin and gemcitabine n=3; mean±SEM. (F) Viability assay (CellTiter-Glo assay) of FG and FG-β3 cells grown in suspension in media with or without serum. n=2; mean+SEM. *P<0.05. **P<0.01.
(a) Effect of integrin β3 expression (ectopic expression for FG and integrin β3-specific knockdown for PANC-1) cells on drug treatment response. Cells were treated with a dose response of gemcitabine, cisplatin, erlotinib, lapatinib and linsitinib. […] Tumor volumes are expressed as mean±SEM. *P<0.05. […] Results are expressed as % tumor weight compared to vehicle control. *P<0.05. […] (f) Relative mRNA expression of integrin β3 (ITGB3) in HCC827 vehicle-treated tumors (n=5) or erlotinib-treated tumors (n=7) from (e) after acquired resistance. Data are mean±SE; **P<0.001. […] Scale bar, 50 μm. […] The HCC827 erlotinib-treated tumors have been digested and sorted in two groups: the integrin β3− and the integrin β3+ population.

[11] = systemic erlotinib treatment for 7-8 weeks

Nc1cccc2c1CN(C1CCC(=O)NC1=O)C2=O (racemic) [lenalidomide, (RS)-3-(4-amino-1-oxo-3H-isoindol-2-yl)piperidine-2,6-dione]
response of colonies / tumorsphere formation to single agent [1]: resistant
tumorsphere formation, combination with erlotinib [1]: decreased tumorsphere formation
tumorsphere formation in vitro, combination with erlotinib [2]: decreased tumorsphere formation
tumor growth, monotherapy [3]: failed to impact tumor growth
tumor growth in vivo, combination with erlotinib [3]: completely suppressed tumor growth

C[C@]1(O)C[C@@H](c2nc(-c3ccc4ccc(-c5ccccc5)nc4c3)c3c(N)nccn32)C1 [OSI-906]
effect of αvβ3 expression on drug resistance (tumor sphere formation) (FG and FG-β3 cells): induced resistance
effect of β3 expression on drug response, cells growing in 3D [4]: reduced sensitivity

O=C(Nc1cc(Cl)cc2c1[nH]c1cnccc12)c1cccnc1 [PS-1145]
response of colonies / tumorsphere formation to single agent [1]: resistant
tumorsphere formation, combination with erlotinib [1]: decreased tumorsphere formation

CC(C)C[C@H](NC(=O)[C@H](Cc1ccccc1)NC(=O)c1cnccn1)B(O)O [bortezomib]
tumorsphere formation in vitro, combination with erlotinib [2]: decreased tumorsphere formation
tumor growth, monotherapy [3]: failed to impact tumor growth
tumor growth in vivo, combination with erlotinib [3]: completely suppressed tumor growth

N.N.[Cl][Pt][Cl] [cisplatin]
effect of αvβ3 expression on drug resistance (tumor sphere formation) (FG and FG-β3 cells): failed to protect cells
impact of integrin β3 expression on resistance [2]: did not impact resistance
effect of β3 expression on drug response, cells growing in 3D [4]: did not impact the response

C#Cc1cccc(Nc2ncnc3cc(OCCOC)c(OCCOC)cc23)c1 [erlotinib, N-(3-ethynylphenyl)-6,7-bis(2-methoxyethoxy) quinazolin-4-amine]
response of colonies / tumorsphere formation to single agent [1]: resistant
erlotinib resistance, ligation competent vs incompetent integrin αvβ3 (FG and FG-β3 cells; FG cells transfected with WT β3 or D119A mutant): same degree of erlotinib resistance
effect of αvβ3 expression on drug resistance (tumor sphere formation) (FG and FG-β3 cells): dramatically increased erlotinib resistance
increase in tumor cell sensitivity to erlotinib after knockdown of αvβ3 (PANC-1 cells): 10 fold
erlotinib resistance of orthotopic pancreatic tumors with ectopic β3 expression ([5]; FG vs FG-β3 orthotopic tumors, systemic treatment): dramatically increased erlotinib resistance; also recorded: conferred erlotinib resistance
increase in αvβ3 expression ([5]; orthotopic FG pancreatic tumors, four weeks of erlotinib treatment): 10 fold
EGFR phosphorylation in tumor lysates (immunoblot) ([5]; orthotopic FG tumors after 10 days of erlotinib): suppressed EGFR phosphorylation
time until moribund ([6]; erlotinib 100 mg/kg/day by oral gavage, start 3 weeks after tumor cell injection): ~58 days
development of resistance [6, 11]: developed resistance
integrin αvβ3 expression compared with vehicle-treated tumors [6, 11]: qualitative increase in integrin αvβ3 expression
levels / activation of phosphorylated TBK1 and NF-κB [7]: reduced; also recorded: decreased the activation
erlotinib response ([2]; H1650 cells, wildtype KRAS and mutant EGFR): resistant
erlotinib response ([2]; tumor cell lines with oncogenic KRAS: FG, H441, and CAPAN1): sensitive
disease progression after days of erlotinib therapy ([8]; Patient 1): 920 days
disease progression after days of erlotinib therapy ([8]; Patient 2): 92 days
disease progression after days of erlotinib therapy ([8]; Patient 3): 120 days
initial response ([8]; all 3 patients): partial response
integrin β3 expression in biopsies after vs before erlotinib resistance ([8]; paired lung tumor biopsies, immunohistochemistry): qualitative increase in integrin β3 expression; also recorded: qualitatively higher
αvβ3 (CD61) status of human lung cancer cells detected in the circulation [9]: positive for αvβ3
effect of β3 expression on drug response, cells growing in 3D [4]: reduced sensitivity
integrin β3 expression in erlotinib resistant vs vehicle-treated tumors (HCC827 xenograft tumors): significantly higher
integrin αvβ3 / β3 expression after prolonged erlotinib exposure in vitro (integrin αvβ3 (CD61)): the greater the expression level of αvβ3; also recorded: induction of β3 expression
erlotinib resistance after knockdown of integrin β3 [10]: overcame erlotinib resistance

Nc1ccn([C@@H]2O[C@H](CO)[C@@H](O)C2(F)F)c(=O)n1 [gemcitabine]
effect of αvβ3 expression on drug resistance (tumor sphere formation) (FG and FG-β3 cells): failed to protect cells
impact of integrin β3 expression on resistance [2]: did not impact resistance
effect of β3 expression on drug response, cells growing in 3D [4]: did not impact the response

CS(=O)(=O)CCNCc1ccc(-c2ccc3ncnc(Nc4ccc(OCc5cccc(F)c5)c(Cl)c4)c3c2)o1 [lapatinib]
effect of β3 expression on drug response, cells growing in 3D [4]: reduced sensitivity
